Data from patent US20060154243A1 (priority 2003, published 2006).

What follows are sequences tested on control serum LUMC (pooled serum of ten healthy hospital workers).
Format: binding, human
In the case of AFLLFLVLIMLIIFW, the “Control serum LUMC linear peptides” value is reported as 0.4 and the “Control serum LUMC looped peptides” value is reported as 0.4. With CFLAFLLFLVLIMLI the “Control serum LUMC linear peptides” value was 0.3 and the “Control serum LUMC looped peptides” value was 0.4. DFYLCFLAFLLFLVL was tested, and the “Control serum LUMC linear peptides” value was 0.4 and the “Control serum LUMC looped peptides” value was 0.6. ELTLIDFYLCFLAFL was tested, and the “Control serum LUMC linear peptides” value was 0.5 and the “Control serum LUMC looped peptides” value was 0.7. For FLAFLLFLVLIMLII, the “Control serum LUMC linear peptides” value was 0.5 and the “Control serum LUMC looped peptides” value was 0.4. FLLFLVLIMLIIFWF was tested, and the “Control serum LUMC linear peptides” value was 0.3 and the “Control serum LUMC looped peptides” value was 0.5. For FLVLIMLIIFWFSLE, the “Control serum LUMC linear peptides” value was 0.7 and the “Control serum LUMC looped peptides” value was 0.7. In the case of FYLCFLAFLLFLVLI, the “Control serum LUMC linear peptides” value is reported as 0.4 and the “Control serum LUMC looped peptides” value is reported as 0.6. IDFYLCFLAFLLFLV was tested, and the “Control serum LUMC linear peptides” value was 0.5 and the “Control serum LUMC looped peptides” value was 0.7. In the case of LAFLLFLVLIMLIIF, the “Control serum LUMC linear peptides” value is reported as 0.3 and the “Control serum LUMC looped peptides” value is reported as 0.4.

What follows are sequences tested on control serum Blood-bank (commercial negative donor pooled serum).
Format: binding, human
With AFLLFLVLIMLIIFW the “Control Serum Blood-Bank Looped peptides” value was 0.8 and the “Control serum Blood-bank linear peptides” value was 0.8. CFLAFLLFLVLIMLI was tested, and the “Control Serum Blood-Bank Looped peptides” value was 0.8 and the “Control serum Blood-bank linear peptides” value was 0.6. In the case of DFYLCFLAFLLFLVL, the “Control Serum Blood-Bank Looped peptides” value is reported as 0.6 and the “Control serum Blood-bank linear peptides” value is reported as 0.7. With ELTLIDFYLCFLAFL the “Control Serum Blood-Bank Looped peptides” value was 0.6 and the “Control serum Blood-bank linear peptides” value was 0.7. For FLAFLLFLVLIMLII, the “Control Serum Blood-Bank Looped peptides” value was 0.7 and the “Control serum Blood-bank linear peptides” value was 0.7. With FLLFLVLIMLIIFWF the “Control Serum Blood-Bank Looped peptides” value was 0.6 and the “Control serum Blood-bank linear peptides” value was 0.9. FLVLIMLIIFWFSLE was tested, and the “Control Serum Blood-Bank Looped peptides” value was 0.8 and the “Control serum Blood-bank linear peptides” value was 0.9. In the case of FYLCFLAFLLFLVLI, the “Control Serum Blood-Bank Looped peptides” value is reported as 0.7 and the “Control serum Blood-bank linear peptides” value is reported as 0.8. IDFYLCFLAFLLFLV was tested, and the “Control Serum Blood-Bank Looped peptides” value was 0.6 and the “Control serum Blood-bank linear peptides” value was 0.9. For LAFLLFLVLIMLIIF, the “Control Serum Blood-Bank Looped peptides” value was 0.8 and the “Control serum Blood-bank linear peptides” value was 0.6.

The sequences below were run on rabbit serum obtained by immunizing with SARS-CoV strain Frankfurt 1.
Format: binding
With ADPKVYPIILRLGSQ the “Rabbit serum linear peptides” value was 0.4 and the “Rabbit serum looped peptides” value was 0.3. AFLLFLVLIMLIIFW was tested, and the “Rabbit serum linear peptides” value was 0.5 and the “Rabbit serum looped peptides” value was 1.0. AFQSTPIVVQMTKLA was tested, and the “Rabbit serum linear peptides” value was 0.1 and the “Rabbit serum looped peptides” value was 0.5. With ALHLVDPQIQLTITR the “Rabbit serum linear peptides” value was 0.5 and the “Rabbit serum looped peptides” value was 0.5. With AMGQGQNSADPKVYP the “Rabbit serum linear peptides” value was 0.1 and the “Rabbit serum looped peptides” value was 0.6. With ARAFQSTPIVVQMTK the “Rabbit serum linear peptides” value was 0.2 and the “Rabbit serum looped peptides” value was 0.7. With ARRNLDSLEARAFQS the “Rabbit serum linear peptides” value was 0.1 and the “Rabbit serum looped peptides” value was 0.5. With ASNKPHVLEDPCKVQ the “Rabbit serum linear peptides” value was 0.8 and the “Rabbit serum looped peptides” value was 0.9. For CASNKPHVLEDPCKV, the “Rabbit serum linear peptides” value was 0.5 and the “Rabbit serum looped peptides” value was 0.8. With CFLAFLLFLVLIMLI the “Rabbit serum linear peptides” value was 0.0 and the “Rabbit serum looped peptides” value was 0.6. In the case of CISLCSCICTVVQRC, the “Rabbit serum linear peptides” value is reported as 0.0 and the “Rabbit serum looped peptides” value is reported as 0.5. DAMGQGQNSADPKVY was tested, and the “Rabbit serum linear peptides” value was 0.3 and the “Rabbit serum looped peptides” value was 0.4. For DFYLCFLAFLLFLVL, the “Rabbit serum linear peptides” value was 0.3 and the “Rabbit serum looped peptides” value was 0.4. With DPKVYPIILRLGSQL the “Rabbit serum linear peptides” value was 0.1 and the “Rabbit serum looped peptides” value was 0.4. With DPQIQLTITRMEDAM the “Rabbit serum linear peptides” value was 0.1 and the “Rabbit serum looped peptides” value was 0.3. For DSLEARAFQSTPIVV, the “Rabbit serum linear peptides” value was 0.1 and the “Rabbit serum looped peptides” value was 0.5. In the case of EARAFQSTPIVVQMT, the “Rabbit serum linear peptides” value is reported as 0.1 and the “Rabbit serum looped peptides” value is reported as 0.4. For EDAMGQGQNSADPKV, the “Rabbit serum linear peptides” value was 0.6 and the “Rabbit serum looped peptides” value was 0.5. ELTLIDFYLCFLAFL was tested, and the “Rabbit serum linear peptides” value was 0.4 and the “Rabbit serum looped peptides” value was 0.6. In the case of FLAFLLFLVLIMLII, the “Rabbit serum linear peptides” value is reported as 0.3 and the “Rabbit serum looped peptides” value is reported as 0.7. FLLFLVLIMLIIFWF was tested, and the “Rabbit serum linear peptides” value was 0.5 and the “Rabbit serum looped peptides” value was 0.7. In the case of FLVLIMLIIFWFSLE, the “Rabbit serum linear peptides” value is reported as 0.4 and the “Rabbit serum looped peptides” value is reported as 0.6. With FQSTPIVVQMTKLAT the “Rabbit serum linear peptides” value was 0.1 and the “Rabbit serum looped peptides” value was 0.6. With FYLCFLAFLLFLVLI the “Rabbit serum linear peptides” value was 0.3 and the “Rabbit serum looped peptides” value was 0.6. GQGQNSADPKVYPII was tested, and the “Rabbit serum linear peptides” value was 0.4 and the “Rabbit serum looped peptides” value was 0.5. GQNSADPKVYPIILR was tested, and the “Rabbit serum linear peptides” value was 0.1 and the “Rabbit serum looped peptides” value was 0.6. In the case of GSQLSLSMARRNLDS, the “Rabbit serum linear peptides” value is reported as 0.1 and the “Rabbit serum looped peptides” value is reported as 0.7. For HLVDPQIQLTITRME, the “Rabbit serum linear peptides” value was 0.1 and the “Rabbit serum looped peptides” value was 0.3. In the case of IDFYLCFLAFLLFLV, the “Rabbit serum linear peptides” value is reported as 0.4 and the “Rabbit serum looped peptides” value is reported as 0.5. With IILRLGSQLSLSMAR the “Rabbit serum linear peptides” value was 0.6 and the “Rabbit serum looped peptides” value was 0.5. ILRLGSQLSLSMARR was tested, and the “Rabbit serum linear peptides” value was 0.1 and the “Rabbit serum looped peptides” value was 0.7. For IQLTITRMEDAMGQG, the “Rabbit serum linear peptides” value was 0.0 and the “Rabbit serum looped peptides” value was 0.2. For ISLCSCICTVVQRCA, the “Rabbit serum linear peptides” value was 0.1 and the “Rabbit serum looped peptides” value was 0.5. In the case of IVLTCISLCSCICTV, the “Rabbit serum linear peptides” value is reported as 0.1 and the “Rabbit serum looped peptides” value is reported as 0.6. IVVQMTKLATTEELP was tested, and the “Rabbit serum linear peptides” value was 0.2 and the “Rabbit serum looped peptides” value was 0.4. With KLLIVLTCISLCSCI the “Rabbit serum linear peptides” value was 0.0 and the “Rabbit serum looped peptides” value was 0.5. In the case of KVYPIILRLGSQLSL, the “Rabbit serum linear peptides” value is reported as 1.8 and the “Rabbit serum looped peptides” value is reported as 0.5. For LAFLLFLVLIMLIIF, the “Rabbit serum linear peptides” value was 0.4 and the “Rabbit serum looped peptides” value was 1.1. For LCSCICTVVQRCASN, the “Rabbit serum linear peptides” value was 0.1 and the “Rabbit serum looped peptides” value was 1.1. With LDSLEARAFQSTPIV the “Rabbit serum linear peptides” value was 0.1 and the “Rabbit serum looped peptides” value was 0.5. For LEARAFQSTPIVVQM, the “Rabbit serum linear peptides” value was 0.1 and the “Rabbit serum looped peptides” value was 0.5. LGSQLSLSMARRNLD was tested, and the “Rabbit serum linear peptides” value was 0.1 and the “Rabbit serum looped peptides” value was 0.3. In the case of LHLVDPQIQLTITRM, the “Rabbit serum linear peptides” value is reported as 0.5 and the “Rabbit serum looped peptides” value is reported as 0.6. In the case of LIVLTCISLCSCICT, the “Rabbit serum linear peptides” value is reported as 0.1 and the “Rabbit serum looped peptides” value is reported as 0.5. With LLIVLTCISLCSCIC the “Rabbit serum linear peptides” value was 0.1 and the “Rabbit serum looped peptides” value was 0.5. With LRLGSQLSLSMARRN the “Rabbit serum linear peptides” value was 0.1 and the “Rabbit serum looped peptides” value was 0.5. In the case of LSLSMARRNLDSLEA, the “Rabbit serum linear peptides” value is reported as 0.1 and the “Rabbit serum looped peptides” value is reported as 0.3. With LSMARRNLDSLEARA the “Rabbit serum linear peptides” value was 0.0 and the “Rabbit serum looped peptides” value was 0.4. LTCISLCSCICTVVQ was tested, and the “Rabbit serum linear peptides” value was 0.1 and the “Rabbit serum looped peptides” value was 0.2. For LVDPQIQLTITRMED, the “Rabbit serum linear peptides” value was 0.1 and the “Rabbit serum looped peptides” value was 0.2. With MARRNLDSLEARAFQ the “Rabbit serum linear peptides” value was 0.1 and the “Rabbit serum looped peptides” value was 0.5. In the case of MDPNQTNVVPPALHL, the “Rabbit serum linear peptides” value is reported as 1.1 and the “Rabbit serum looped peptides” value is reported as 0.1. MGQGQNSADPKVYPI was tested, and the “Rabbit serum linear peptides” value was 0.1 and the “Rabbit serum looped peptides” value was 0.6. MKLLIVLTCISLCSC was tested, and the “Rabbit serum linear peptides” value was 0.1 and the “Rabbit serum looped peptides” value was 0.5. With NLDSLEARAFQSTPI the “Rabbit serum linear peptides” value was 0.2 and the “Rabbit serum looped peptides” value was 0.4. In the case of NSADPKVYPIILRLG, the “Rabbit serum linear peptides” value is reported as 0.1 and the “Rabbit serum looped peptides” value is reported as 0.4. For PIILRLGSQLSLSMA, the “Rabbit serum linear peptides” value was 0.1 and the “Rabbit serum looped peptides” value was 0.5. PIVVQMTKLATTEEL was tested, and the “Rabbit serum linear peptides” value was 0.1 and the “Rabbit serum looped peptides” value was 0.6. PKVYPIILRLGSQLS was tested, and the “Rabbit serum linear peptides” value was 0.1 and the “Rabbit serum looped peptides” value was 0.4. In the case of PQIQLTITRMEDAMG, the “Rabbit serum linear peptides” value is reported as 0.0 and the “Rabbit serum looped peptides” value is reported as 0.2. For QGQNSADPKVYPIIL, the “Rabbit serum linear peptides” value was 0.1 and the “Rabbit serum looped peptides” value was 0.5. QIQLTITRMEDAMGQ was tested, and the “Rabbit serum linear peptides” value was 0.1 and the “Rabbit serum looped peptides” value was 0.2. With QLSLSMARRNLDSLE the “Rabbit serum linear peptides” value was 0.1 and the “Rabbit serum looped peptides” value was 0.3. For QLTITRMEDAMGQGQ, the “Rabbit serum linear peptides” value was 0.1 and the “Rabbit serum looped peptides” value was 0.4. QNSADPKVYPIILRL was tested, and the “Rabbit serum linear peptides” value was 0.1 and the “Rabbit serum looped peptides” value was 0.1. QSTPIVVQMTKLATT was tested, and the “Rabbit serum linear peptides” value was 0.0 and the “Rabbit serum looped peptides” value was 0.6. In the case of RAFQSTPIVVQMTKL, the “Rabbit serum linear peptides” value is reported as 0.1 and the “Rabbit serum looped peptides” value is reported as 0.7. For RLGSQLSLSMARRNL, the “Rabbit serum linear peptides” value was 0.1 and the “Rabbit serum looped peptides” value was 2.5. For RNLDSLEARAFQSTP, the “Rabbit serum linear peptides” value was 0.3 and the “Rabbit serum looped peptides” value was 0.5. For RRNLDSLEARAFQST, the “Rabbit serum linear peptides” value was 0.3 and the “Rabbit serum looped peptides” value was 0.5. SADPKVYPIILRLGS was tested, and the “Rabbit serum linear peptides” value was 0.1 and the “Rabbit serum looped peptides” value was 0.4. SLCSCICTVVQRCAS was tested, and the “Rabbit serum linear peptides” value was 0.1 and the “Rabbit serum looped peptides” value was 0.2. In the case of SLEARAFQSTPIVVQ, the “Rabbit serum linear peptides” value is reported as 0.1 and the “Rabbit serum looped peptides” value is reported as 0.6. In the case of SLSMARRNLDSLEAR, the “Rabbit serum linear peptides” value is reported as 0.1 and the “Rabbit serum looped peptides” value is reported as 0.4. In the case of SMARRNLDSLEARAF, the “Rabbit serum linear peptides” value is reported as 0.1 and the “Rabbit serum looped peptides” value is reported as 0.4. With SNKPHVLEDPCKVQH the “Rabbit serum linear peptides” value was 0.8 and the “Rabbit serum looped peptides” value was 0.4. With SQLSLSMARRNLDSL the “Rabbit serum linear peptides” value was 0.1 and the “Rabbit serum looped peptides” value was 0.4. With STPIVVQMTKLATTE the “Rabbit serum linear peptides” value was 0.1 and the “Rabbit serum looped peptides” value was 0.5. For TCISLCSCICTVVQR, the “Rabbit serum linear peptides” value was 0.0 and the “Rabbit serum looped peptides” value was 0.5. With TPIVVQMTKLATTEE the “Rabbit serum linear peptides” value was 0.1 and the “Rabbit serum looped peptides” value was 0.4. In the case of TTEELPDEFVVVTAK, the “Rabbit serum linear peptides” value is reported as 0.0 and the “Rabbit serum looped peptides” value is reported as 0.5. With VDPQIQLTITRMEDA the “Rabbit serum linear peptides” value was 0.0 and the “Rabbit serum looped peptides” value was 0.4. VLTCISLCSCICTVV was tested, and the “Rabbit serum linear peptides” value was 0.0 and the “Rabbit serum looped peptides” value was 0.4. With VYPIILRLGSQLSLS the “Rabbit serum linear peptides” value was 0.6 and the “Rabbit serum looped peptides” value was 1.0. For YPIILRLGSQLSLSM, the “Rabbit serum linear peptides” value was 0.2 and the “Rabbit serum looped peptides” value was 0.4.
